Results as given in patent US20160113940A1, “METHODS OF TREATING BIOFILMS” (BIOMIMETIX J.V., LLC, priority 2013, published 2016).

Legend:
[1] = tested on: Biofilm forming Staphylococcus Aureus
Description: A total of 20 C57B5 male mice were randomly divided into four treatment groups after surgery to create an infected femur fracture (midshaft femur fracture fixed with intramedullary 23 g needle and with 10^4 S. aureus added to the fracture site):
2. Antibiotic (Keflex) starting 24 hours post-surgery,
3. SOD mimetic MnTE-2-PyP (starting 24 hours post-surgery,
4. Antibiotic plus MnTE-2-PyP (starting 24 hours post-surgery).
The mice were followed for 2 weeks and received daily access to Keflex in drinking water at […] dose for the antibiotic treated groups and MnTE three time per week (loading dose day 1=5.0 mg/kg SQ, followed by 2.5 mg/kg SQ three times weekly). […] Mice were harvested after 2 weeks and femurs were homogenized in PBS, supernatants were serially diluted and plated to determine cell counts.

[2] = tested on: Biofilm forming S. aureus; assay: Inhibition of Staphylococcus aureus biofilm formation in vitro (96 well plates, absorbance at 600 nm); assay type: cell-based; conditions: established 24 h biofilm, 24 hours further growth after treatment, vs PBS; p<0.0001; FIG. 1
Description: Biofilm forming S. aureus was grown in 96 well plates for 24 hours to allow a biofilm to form. Wells were allowed to grow an additional 24 hours after being treated with either PBS or SOD mimetic (Mn (III) tetrakis (N-ethylpyridinium-2-yl) porphyrin, or “MnTE-PyP”). Biofilm intensity was measured using absorbance at 600 nm. […] (p<0.0001)

| SMILES | Fracture healing compared to no treatment ([1]; infected femur fracture, 2 wks, FIG. 3) | Mortality ([1]; initial post-operative period, mimetic only group, not felt to be related to the compound) | Biofilm intensity (absorbance at 600 nm) [2] |
| --- | --- | --- | --- |
| CC1=C(C(=O)O)N2C(=O)[C@@H](NC(=O)[C@H](N)c3ccccc3)[C@H]2SC1 [Keflex, reference compound] | significantly improved fracture healing | – | – |
| CC[n+]1ccccc1-c1c2nc(c(-c3cccc[n+]3CC)c3ccc([n-]3)c(-c3cccc[n+]3CC)c3nc(c(-c4cccc[n+]4CC)c4ccc1[n-]4)C=C3)C=C2.[Mn+3] [MnTE-2-PyP, Mn (III) tetrakis (N-ethylpyridinium-2-yl) porphyrin] | – | one mouse died | disrupts established S. aureus biofilms in culture |
